TGI, GI50 and outcome data for ten molecules are collected here from PubChem BioAssay (NCI).

Test systems include 786-0 renal; M14 melanoma; KM20L2 colon; SNB-75 CNS; SR leukemia; DLD-1 colon; NCI-H23 lung; SN12C renal; BT-549 breast; NCI/ADR-RES ovarian.
Holding throughout (assay): NCI anticancer screen, dose series, 48 h

Where “and” joins values, the source holds several entries; their conditions need not be identical. Equal entries are not always repeated.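 Following 48 hours of exposure in 96-well plates, responses at five concentrations were used to interpolate endpoints linearly. Here, GI50 denotes the concentration required for 50% inhibition of growth. Definition used: TGI = concentration required for complete inhibition of growth.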 Calls of active or inactive are those of the source. Rule as the data show it: active = GI50 below about 0.43 µM; inactive = the rest. Where only a bound is given, the exact number is not on record here.

For `CN1CCc2cc3c4cc2C1Cc1ccc(cc1)Oc1cc(ccc1O)CC1c2c(cc(O)c(c2O4)O3)CCN1C` (configuration not stated), the TGI was 10.9 µM in the test with 786-0 renal; 3.26 µM with M14 melanoma; 10.3 µM with KM20L2 colon; 65.6 µM in the test with SNB-75 CNS; above 100 µM with SR leukemia; 14.8 µM in the test on DLD-1 colon. Besides, the TGI with NCI-H23 lung amounted to 13.5 µM; in the test on SN12C renal it was 14.8 µM.
Regarding `O=C1C(Br)=CC2(C=C1Br)CCNc1c(O)c3c4c(c12)=NCCC=4C=N3`, the TGI in the test on 786-0 renal came to 0.272 µM; with M14 melanoma it was 0.212 µM; with KM20L2 colon it was 0.413 µM; with SNB-75 CNS, 2.16 µM; with SR leukemia, 0.117 µM; in the test with DLD-1 colon it was 0.0798 µM. In addition, the TGI with BT-549 breast is 0.507 µM; in the test on NCI-H23 lung, 0.287 µM; with NCI/ADR-RES ovarian, 0.58 µM; in the test with SN12C renal, 0.344 µM.
For the molecule `O=C1c2ccccc2C(=O)c2c1ccc1c2N=C(c2ccc(Br)cc2)CC(c2cccc3ccccc23)N1` (configuration not stated), the TGI in the test on 786-0 renal, in the test with M14 melanoma, with KM20L2 colon, in the test on SNB-75 CNS, in the test on SR leukemia and in the test with DLD-1 colon was above 100 µM throughout. Also, the TGI with NCI-H23 lung and in the test on SN12C renal was above 100 µM each time.
Turning to `CC1(C)CC(N2CCN(C3CC(C)(C)NC(C)(C)C3)CC2)CC(C)(C)N1`, the TGI in the test with 786-0 renal, in the test on M14 melanoma, in the test with KM20L2 colon, with SNB-75 CNS, in the test on SR leukemia and with DLD-1 colon was above 100 µM each time. The TGI in the test on NCI-H23 lung and in the test on SN12C renal was above 100 µM throughout.
With `O=C(O)COc1ccc(C(=O)/C(SS/C(C(=O)c2ccc(OCC(=O)O)c(Cl)c2Cl)=C2\C=C(c3ccccc3Cl)SS2)=C2/C=C(c3ccccc3Cl)SS2)c(Cl)c1Cl`, the TGI in the test on 786-0 renal was 36.7 µM; in the test with M14 melanoma it was above 68 µM; in the test with KM20L2 colon, above 100 µM; in the test with SNB-75 CNS, above 100 µM; with SR leukemia, 6.91 µM; in the test on DLD-1 colon, above 65.4 µM. Further, the TGI with NCI-H23 lung is 60.2 µM; in the test with SN12C renal, above 100 µM.
Regarding `CCc1ccc([O-])c(C=NCCCN(C)CCCN=Cc2cc(C)ccc2[O-])c1.[Co+3].[N-]=[N+]=[N-]`, the GI50 with 786-0 renal was 43.1 µg/mL; with M14 melanoma, 50 µg/mL; with SNB-75 CNS, 1.38 µg/mL and 10 µg/mL; in the test on SR leukemia it was 36.4 µg/mL; in the test on DLD-1 colon, 61 µg/mL; in the test on BT-549 breast, 50 µg/mL. Besides, the GI50 in the test on NCI-H23 lung is 50 µg/mL and 33.8 µg/mL; with NCI/ADR-RES ovarian it was 50 µg/mL and 47.4 µg/mL; in the test with SN12C renal it was 50 µg/mL and 61.8 µg/mL. Also, the TGI with 786-0 renal was 50 µg/mL; in the test with M14 melanoma it was 50 µg/mL; in the test on SR leukemia, 50 µg/mL; in the test with DLD-1 colon it was above 150 µg/mL; in the test on BT-549 breast it was 50 µg/mL; in the test on NCI-H23 lung, 50 µg/mL and 129 µg/mL. Moreover, the TGI was 50 µg/mL and 47.4 µg/mL with NCI/ADR-RES ovarian; 50 µg/mL and > 150 µg/mL in the test on SN12C renal. The outcome with KM20L2 colon was inactive.
As for `Cc1ccc2nc3c(C)cc(=O)cc-3sc2c1`, the TGI in the test with 786-0 renal was 35.4 µM; with M14 melanoma, 42.4 µM; in the test with KM20L2 colon, above 100 µM; in the test on SNB-75 CNS, 69.2 µM; in the test on SR leukemia, 46.7 µM; in the test on DLD-1 colon, above 100 µM. Further, the TGI with NCI-H23 lung worked out at 52.8 µM; with SN12C renal it was 48.8 µM.
In the case of `NC(=O)c1cc([N+](=O)[O-])cc([N+](=O)[O-])c1`, the TGI with 786-0 renal, in the test with M14 melanoma, in the test with KM20L2 colon, in the test with SNB-75 CNS, in the test on SR leukemia and in the test on DLD-1 colon was above 100 µM throughout. For the same molecule, the TGI with NCI-H23 lung and in the test with SN12C renal was above 100 µM in each case.
Take `O=C1CC[C@@H](NC(=O)Cc2ccccc2)C(=O)N1`: the TGI with 786-0 renal, in the test with M14 melanoma, in the test on KM20L2 colon, in the test with SNB-75 CNS, with SR leukemia and in the test with DLD-1 colon was above 100 µM in each case. In addition, the TGI in the test on NCI-H23 lung and in the test with SN12C renal was above 100 µM in each case.
As to `O=C(/C=C/c1ccc(O)cc1)c1cc(Cl)ccc1O`, the TGI in the test on 786-0 renal is above 100 µM; with M14 melanoma, above 100 µM; with KM20L2 colon, above 100 µM; in the test on SNB-75 CNS it was above 100 µM; with SR leukemia it was 54.6 µM; in the test with DLD-1 colon, above 100 µM. The TGI with NCI-H23 lung and in the test with SN12C renal was above 100 µM throughout.
